In patent US8026282B2, “Phenoxyalkylcarboxylic acid derivatives in the treatment of irritable bowel syndrome” (Medicinova, Inc., priority 2004, dated 2011):

Legend:
PDE2 = PDE2 (Homo sapiens, UniProt O00408); assay: Biochemical assay PDE2; settings: PDE2, Hu
PDE4 = assay: Biochemical assay PDE4; settings: PDE4, Hu
PDE5 = PDE5 (Homo sapiens, UniProt O76074); assay: Biochemical assay PDE5; settings: PDE5, Hu
PLA2-I = PLA2-I (Sus scrofa, UniProt P00592); assay: Biochemical assay PLA2-I; settings: Pig
Chain of PLA2-I (P00592 23-146): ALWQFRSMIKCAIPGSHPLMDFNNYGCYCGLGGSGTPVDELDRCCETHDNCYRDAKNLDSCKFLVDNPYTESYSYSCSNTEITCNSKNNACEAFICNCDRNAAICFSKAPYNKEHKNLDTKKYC

Adrenergic β3 = Adrenergic β3 (Homo sapiens, UniProt P13945); assay: Biochemical assay Adrenergic β3; type: binding; settings: Adrenergic β3, Hu; for Ki: value in parentheses
Chain of Adrenergic β3 (P13945 whole entry): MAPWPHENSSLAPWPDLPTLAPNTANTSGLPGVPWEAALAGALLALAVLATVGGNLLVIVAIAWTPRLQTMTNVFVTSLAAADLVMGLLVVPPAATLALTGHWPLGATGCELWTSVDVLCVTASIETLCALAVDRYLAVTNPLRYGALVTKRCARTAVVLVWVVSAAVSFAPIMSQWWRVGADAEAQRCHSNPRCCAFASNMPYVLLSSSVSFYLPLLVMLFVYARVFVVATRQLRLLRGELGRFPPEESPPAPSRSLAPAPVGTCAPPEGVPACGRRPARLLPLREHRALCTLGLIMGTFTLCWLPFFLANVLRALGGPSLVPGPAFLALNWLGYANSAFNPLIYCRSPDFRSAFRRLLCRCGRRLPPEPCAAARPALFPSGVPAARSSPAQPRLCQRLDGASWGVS

LTB4 = LTB4 (Homo sapiens, UniProt Q15722); assay: Biochemical assay LTB4; type: binding; settings: LTB4, Hu
Chain of LTB4 (Q15722 whole entry): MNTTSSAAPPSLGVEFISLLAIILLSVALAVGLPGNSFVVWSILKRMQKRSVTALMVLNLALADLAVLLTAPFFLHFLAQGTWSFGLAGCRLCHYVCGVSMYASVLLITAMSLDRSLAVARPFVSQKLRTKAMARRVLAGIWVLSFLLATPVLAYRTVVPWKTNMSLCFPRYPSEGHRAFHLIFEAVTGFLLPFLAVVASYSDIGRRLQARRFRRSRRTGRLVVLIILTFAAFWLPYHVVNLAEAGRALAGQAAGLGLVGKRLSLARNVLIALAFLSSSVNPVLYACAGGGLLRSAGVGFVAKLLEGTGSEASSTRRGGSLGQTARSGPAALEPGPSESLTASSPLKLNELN

LTD4 = target: T1, LTD4 (Cavia porcellus, UniProt Q2NNR5); assay: Biochemical assay LTD4; type: binding; settings: LTD4, Gp; for Ki: value in parentheses
T1 sequence (Q2NNR5 1-340): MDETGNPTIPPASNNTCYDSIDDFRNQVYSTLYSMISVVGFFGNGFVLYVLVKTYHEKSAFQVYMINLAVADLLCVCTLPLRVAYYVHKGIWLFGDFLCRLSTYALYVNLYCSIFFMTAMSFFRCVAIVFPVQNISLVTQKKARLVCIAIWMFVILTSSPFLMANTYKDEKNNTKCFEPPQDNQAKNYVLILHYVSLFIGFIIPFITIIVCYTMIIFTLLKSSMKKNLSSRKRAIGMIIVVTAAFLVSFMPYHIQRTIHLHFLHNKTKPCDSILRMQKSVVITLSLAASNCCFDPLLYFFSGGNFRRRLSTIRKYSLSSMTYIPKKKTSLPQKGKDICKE

Melanocortin MC5 = Melanocortin MC5 (Homo sapiens, UniProt P33032); assay: Biochemical assay Melanocortin MC5; type: binding; settings: Melanocortin MC5, Hu; for Ki: value in parentheses
Chain of Melanocortin MC5 (P33032 whole entry): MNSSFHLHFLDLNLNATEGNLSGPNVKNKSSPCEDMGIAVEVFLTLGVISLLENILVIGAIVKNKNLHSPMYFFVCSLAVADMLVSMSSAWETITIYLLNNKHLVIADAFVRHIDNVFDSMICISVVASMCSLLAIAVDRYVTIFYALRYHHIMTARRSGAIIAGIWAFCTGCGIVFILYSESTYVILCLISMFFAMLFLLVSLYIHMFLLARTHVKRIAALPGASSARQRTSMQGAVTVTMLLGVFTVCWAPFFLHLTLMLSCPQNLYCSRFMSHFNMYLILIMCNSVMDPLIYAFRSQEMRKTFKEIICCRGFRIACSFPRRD

Opiate δ = Opiate δ (Homo sapiens, UniProt P41143); assay: Biochemical assay Opiate δ; type: binding; settings: Hu; for Ki: value in parentheses
Chain of Opiate δ (P41143 whole entry): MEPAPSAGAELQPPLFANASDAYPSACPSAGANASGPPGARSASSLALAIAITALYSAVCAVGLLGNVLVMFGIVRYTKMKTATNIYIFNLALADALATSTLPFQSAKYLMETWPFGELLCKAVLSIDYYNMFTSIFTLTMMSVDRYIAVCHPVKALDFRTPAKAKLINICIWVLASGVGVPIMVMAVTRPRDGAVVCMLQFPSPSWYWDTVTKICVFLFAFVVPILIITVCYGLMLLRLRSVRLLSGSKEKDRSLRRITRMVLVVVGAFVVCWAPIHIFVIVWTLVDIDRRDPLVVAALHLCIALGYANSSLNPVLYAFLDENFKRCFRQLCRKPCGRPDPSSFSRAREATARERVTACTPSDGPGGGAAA

Thromboxane A2 = target: T2, Thromboxane A2 (Homo sapiens, UniProt P21731); assay: Biochemical assay Thromboxane A2; type: binding; settings: Thromboxane A2, Hu; for Ki: value in parentheses
T2 sequence (P21731 1-343): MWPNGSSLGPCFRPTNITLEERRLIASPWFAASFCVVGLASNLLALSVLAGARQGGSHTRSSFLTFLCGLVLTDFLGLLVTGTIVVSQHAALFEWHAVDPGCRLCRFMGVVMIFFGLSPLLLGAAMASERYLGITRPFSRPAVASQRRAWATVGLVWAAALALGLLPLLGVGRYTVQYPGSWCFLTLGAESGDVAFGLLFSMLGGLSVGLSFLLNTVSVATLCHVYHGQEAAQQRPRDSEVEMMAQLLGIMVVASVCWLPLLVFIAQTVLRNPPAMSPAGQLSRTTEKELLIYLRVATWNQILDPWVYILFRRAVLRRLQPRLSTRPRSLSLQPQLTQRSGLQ

rat bladder = assay: Ovalbumin-sensitized rat model of inflammation-induced bladder hyperactivity (cystometry); type: in vivo, Sprague-Dawley rats; settings: for NVC/minute: 60 minutes prior
Description: Sprague-Dawley rats (n=50; […]) were utilized for this study. The animals were divided into 5 groups (n=10). The first group served as the control and the second group was sensitized with ovalbumin (OA). The third, fourth, and fifth groups were also sensitized as described but subjected to oral gavaging with Compound 1 prior to acute ovalbumin challenge.
Sensitization of the animals was accomplished with an intraperitoneal injection of a mixture of 1 mg OA and 100 mg aluminum hydroxide suspended in 1 mL of saline. Fourteen days later, these sensitized rats were anaesthetized with a subcutaneous injection of urethane (1.2 g/kg) for intravesical OA (10 mg/mL) administration and evaluation of bladder hyperactivity. The animals in group 1 received saline (control), group 2 animals received about 2 mL of OA (10 mg/mL OA in sterile saline) and animal groups 3-5 animals received oral 1 (10, 30, 50 mg/kg in gum acacia suspension) 60 minutes prior to acute OA challenge (2 mL of 10 mg/mL OA).
All animals were subjected to evaluation of bladder hyperactivity. Briefly, a 1 cm incision was made along the centerline of the lower ventral abdomen. The bladder was exteriorized, and catheterized by means of a polyethylene tube (PE 50, Clay Adams) inserted into the bladder dome and sutured in place using a 2-0 braided silk suture. The bladder was returned to the abdomen, with the catheter line escaping through the incision. The catheter was then connected to a pressure transducer (UFI, Morro Bay, Calif.) and in turn, connected to an infusion pump (Harvard Apparatus, MA). During the continuous filling bladder cystometry, the pressure was recorded with the transducer using the program LabVIEW (National Instruments, TX).
For cystometry (See, Chuang Y C, Chancellor M B, Seki S, Yoshimura N, Tyagi P, Huang L, Lavelle J P, De Groat W C and Fraser M O: Intravesical protamine sulfate and potassium chloride as a model for bladder hyperactivity. Urology (2003) 61:664-70), the bladder was first infused with warm 0.9% saline (37° C.) at 40 μL/min (2.4 mL/hr) and at least 20 minutes of stable voiding cycles were recorded during infusion. This process was followed by intravesical infusion of OA (10 mg/mL) and bladder contractions were recorded. Frequency of contractions (voids), inter-contractile interval (ICI), and non-voiding contractions (NVC) were calculated from these recordings.

IBS/ulcerative colitis = assay: Example 9: patient with IBS/ulcerative colitis symptoms; type: in vivo, human; settings: 750 mg tablets three times per day for at least two months; present-tense example
Description: A person complains of symptoms associated with IBS/ulcerative colitis, including diarrhea with discharge of mucus and blood, cramping abdominal pain, and inflammation and edema of the mucous membrane with patches of ulceration. The patient is treated with tablets containing 750 mg of compound (1), three times per day, for at least two months. […] Similar positive results are observed for other patients complaining of the same or similar symptoms attributable to IBS or ulcerative colitis.

[1] = Form present in human plasma; type: in vivo; settings: metabolite of compound 1, human plasma

Chain of PDE2 (O00408 whole entry): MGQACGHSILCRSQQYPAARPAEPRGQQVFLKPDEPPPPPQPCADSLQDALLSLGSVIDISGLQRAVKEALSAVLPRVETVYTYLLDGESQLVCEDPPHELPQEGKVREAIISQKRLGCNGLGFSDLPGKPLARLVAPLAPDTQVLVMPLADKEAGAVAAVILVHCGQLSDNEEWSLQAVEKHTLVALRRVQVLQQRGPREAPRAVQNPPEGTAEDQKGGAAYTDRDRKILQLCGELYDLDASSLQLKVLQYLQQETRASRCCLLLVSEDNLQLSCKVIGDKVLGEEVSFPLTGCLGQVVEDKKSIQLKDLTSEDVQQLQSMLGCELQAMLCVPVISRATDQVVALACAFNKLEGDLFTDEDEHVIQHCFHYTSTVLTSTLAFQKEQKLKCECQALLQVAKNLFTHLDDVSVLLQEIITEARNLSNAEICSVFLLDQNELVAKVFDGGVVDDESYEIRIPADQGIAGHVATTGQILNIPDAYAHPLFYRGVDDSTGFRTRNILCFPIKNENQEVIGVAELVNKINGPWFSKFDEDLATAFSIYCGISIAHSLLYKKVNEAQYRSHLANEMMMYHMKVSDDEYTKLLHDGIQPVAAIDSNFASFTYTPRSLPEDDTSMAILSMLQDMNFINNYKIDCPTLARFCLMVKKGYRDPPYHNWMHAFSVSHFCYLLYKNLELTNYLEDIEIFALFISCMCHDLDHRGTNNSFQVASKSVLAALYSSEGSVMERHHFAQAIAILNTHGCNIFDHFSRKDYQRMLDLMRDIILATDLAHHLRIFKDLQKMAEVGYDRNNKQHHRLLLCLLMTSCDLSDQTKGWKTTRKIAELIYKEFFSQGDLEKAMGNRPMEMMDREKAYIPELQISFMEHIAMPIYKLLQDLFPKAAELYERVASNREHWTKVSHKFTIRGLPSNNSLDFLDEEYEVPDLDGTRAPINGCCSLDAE

Row | SMILES | IC50 (PDE2) [nM] | IC50 (PDE4) [nM] | IC50 (PDE5) [nM] | IC50 (PLA2-I) [nM] | IC50 (Adrenergic β3) [nM] | Ki (Adrenergic β3) [nM] | IC50 (LTD4) [nM] | Ki (LTD4) [nM] | IC50 (Melanocortin MC5) [nM] | Ki (Melanocortin MC5) [nM] | IC50 (Opiate δ) [nM] | Ki (Opiate δ) [nM] | IC50 (Thromboxane A2) [nM] | Ki (Thromboxane A2) [nM] | other results
1 | CCCc1c(SCCCOc2ccc(C(C)=O)c(OCCCC(=O)O)c2CCC)ccc(C(C)=O)c1O [Compound 1, 4-[6-acetyl-3-[3-(4-acetyl-3-hydroxy-2-propylphenylthio)propoxy]-2-propylphenoxy]butyric acid] | 3430 | 639 | 12700 | 142000 | 4630 | 3470 | 6360 | 3180 | 2580 | 2420 | 1040 | 365 | 3370 | 2200 | IC50 (LTB4): 9020 nM; Ki (LTB4; value in parentheses): 2290 nM; NVC/minute (rat bladder; Group 3: OA (10 mg/mL) infusion after oral 10 mg/kg, n = 10, NS compared to Group 2 (OA alone 0.9400 ± 0.2473)): 0.4700 ± 0.1221 NVC/minute; NVC/minute (rat bladder; Group 4: OA (10 mg/mL) infusion after oral 30 mg/kg, n = 9, P < 0.05 compared to Group 2): 0.3444 ± 0.06894 NVC/minute; NVC/minute (rat bladder; Group 5: OA (10 mg/mL) infusion after oral 50 mg/kg, n = 9, P < 0.05 compared to Group 2): 0.1778 ± 0.08296 NVC/minute; voiding frequency (rat bladder; control (group 1) versus treatment groups (2-5)): No significant differences; OA-induced changes in NVC and ICI (rat bladder; pre-treatment, oral 10, 30, 50 mg/kg): dose-dependent inhibition; protection against OA-induced changes (increase in NVC, decrease in ICI) (rat bladder; pre-treatment, preferably at 30 and 50 mg/kg): significant protection; symptoms of IBS/ulcerative colitis reported by patient (IBS/ulcerative colitis): positive effects
2 | CCCc1c(SCCCOc2ccc(C(C)O)c(OCCCC(=O)O)c2CCC)ccc(C(C)=O)c1O (centres unmarked) [Compound 2] | 3380 | 303 | 8470 | 248000 | 1100 | 821 | 5350 | 2670 | 1820 | 1710 | 3030 | 1070 | 3890 | 2540 | form in human plasma [1]: dominant form
